Where no end group is shown, it is not given here.
Test: Sensory evaluation of peptide additive in coffee brew by five expert panelists (Example 4)
Conditions: 40 ppm additive in coffee brew; FOLGERS Classic Decaf roast and ground coffee; versus control brew without additive
Method: Coffee brews were prepared using a commercially available roast and ground coffee product (FOLGERS® brand Classic Decaf coffee) using a standard automatic drip coffee brewer (i.e., MR. COFFEE®). The brewing process was carried out as instructed on the coffee package. Each single peptide in Example 1 and peptide compositions in Examples 2 and 3 were mixed into to the coffee brew. Five expert panelists evaluated the effect of peptide additive on coffee flavor profile.

For EELLPE [Peptide (Ie)], which “Sensory Evaluation” value is on record?
The value was “Stronger than control, fuller”.

For LACHLL [Peptide (Id)], which “Sensory Evaluation” value is on record?
The value was “Strange non-coffee taste charcoal,”.

For “Pro-Pro-Thr-Leu-Leu (PPTLL) [Peptide (Ic)]”, which “Sensory Evaluation” value is on record?
The value was “Stronger than control, bitter”.

Which “Sensory Evaluation” value does the source give for “Pro-Thr-Pro-Leu-Leu (PTPLL) [Peptide (Ia)]” here?
The value was “Stronger than control, very bitter”.

From patent publication US10005816B2, “Peptides and their use in food and beverage” (priority 2014, dated 2018)
